# Values quoted from earlier work as cited in patent US6670343B1, “Drugs for periodontal disease” (Toray Industries, Inc., priority 1999, dated 2003).
# Conditions: reported in J. Periodontology 63, 825-830 (1992)
compound,measurement,value
"NCCCC(O)(P(=O)(O)O)P(=O)(O)O [4-amino-1-hydroxybutylidene-1,1-bisphosphonic acid]",effect on alveolar bone resorption,effectively suppresses alveolar bone resorption
same,effect on dental pocket formation and gingival inflammation,not effective
